“Also recorded” adds a separate entry of the source.
Legend:
[1] = test system: FR-alpha and beta; conditions: cited from earlier work
[2] = test system: FR-positive M109 tumors; test: Imaging and biodistribution, M109 metastatic model; format: in vivo, mice; conditions: 2 nmol, 2 h
Procedure: Seven-week-old female nu/nu mice were inoculated subcutaneously with KB (1.0×10^6/mouse in RPM11640 medium), IGROV (5.0×10^6/mouse in 50% high concentrated matrigel+RPM11640 medium), SKOV3 (5.0×10^6/mouse in RPM11640 medium), OVCAR3 (5.0×10^6/mouse in RPM11640 medium), MDA-MB231 (1.0×10^6/mouse in RPM11640 medium), M109 (1.0×10^6/mouse in RPM11640 medium) or A549 cells (2.0×10^6/mouse in RPM11640 medium) on the shoulder. Growth of the tumors was measured in perpendicular directions every 2 days using a caliper (body weights were monitored on the same schedule), and the volumes of the tumors were calculated as 0.5×L×W^2 (L=longest axis and W=axis perpendicular to L in millimeters). Once tumors reached approximately 300-400 mm3 in volume, animals (3-5 mice/group) were intravenously injected with the compound of interest in PBS (for dose escalation in KB tumor model: 0.3-90 nmol, for time dependent in KB tumor model: 2 or 10 nmol, and for general whole body imaging and biodistribution for all tumor models: 2 nmol, in 100 μL in PBS per mouse). […]
(§1) Following whole body imaging, animals were dissected and selected tissues (heart, lung, liver, spleen, kidneys, stomach, small intestine, large intestine, muscle, skin, and tumor) were analyzed for fluorescence activity using IVIS imager using same settings as in whole body imaging.

[3] = Chemical and optical properties of NIR dyes (Table 1); format: physicochemical
[4] = test system: FR-positive IGROV tumor xenografts; test: Imaging and biodistribution, IGROV ovarian xenograft; format: in vivo, mice; conditions: 2 nmol, 2 h
Procedure: (§2) Seven-week-old female nu/nu mice were inoculated subcutaneously with KB (1.0×10^6/mouse in RPM11640 medium), IGROV (5.0×10^6/mouse in 50% high concentrated matrigel+RPM11640 medium), SKOV3 (5.0×10^6/mouse in RPM11640 medium), OVCAR3 (5.0×10^6/mouse in RPM11640 medium), MDA-MB231 (1.0×10^6/mouse in RPM11640 medium), M109 (1.0×10^6/mouse in RPM11640 medium) or A549 cells (2.0×10^6/mouse in RPM11640 medium) on the shoulder. Growth of the tumors was measured in perpendicular directions every 2 days using a caliper (body weights were monitored on the same schedule), and the volumes of the tumors were calculated as 0.5×L×W^2 (L=longest axis and W=axis perpendicular to L in millimeters). Once tumors reached approximately 300-400 mm3 in volume, animals (3-5 mice/group) were intravenously injected with the compound of interest in PBS (for dose escalation in KB tumor model: 0.3-90 nmol, for time dependent in KB tumor model: 2 or 10 nmol, and for general whole body imaging and biodistribution for all tumor models: 2 nmol, in 100 μL in PBS per mouse). For whole body imaging and biodistribution studies, animals were euthanized 2 hours after administration of the compound of interest by CO2 asphyxiation. For time dependent studies, animals were imaged under anesthesia using isoflurane. Whole body imaging (intact tumor) experiments was then performed using a Caliper IVIS Lumina II Imaging Station with Living Image 4.0 software (PerkinElmer Inc, MA).
as §1

[5] = test system: FR-positive MDA-MB 231 tumor xenografts; test: Imaging and biodistribution, MDA-MB 231 breast xenograft; format: in vivo, mice
Procedure: as §2, §1

[6] = biological target: T1, folate receptor (FR-α) on KB cells (Homo sapiens, UniProt P15328); test: Competition binding with [3H]-folic acid on KB cells
T1 construct: KB cells that overexpress FR-α were seeded in 24-well (100,000 cells/well) Falcon plates; host or cells: KB cells (human; described as a HeLa derivative)
T1 sequence (P15328 25-234): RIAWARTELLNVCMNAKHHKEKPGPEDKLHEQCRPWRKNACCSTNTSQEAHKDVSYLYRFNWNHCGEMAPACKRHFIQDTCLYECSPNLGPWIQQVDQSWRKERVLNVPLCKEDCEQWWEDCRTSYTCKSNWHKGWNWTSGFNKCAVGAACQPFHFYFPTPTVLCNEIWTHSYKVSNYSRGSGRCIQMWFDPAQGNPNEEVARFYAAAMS
Procedure: KB cells that overexpress FR-α were seeded in 24-well (100,000 cells/well) Falcon plates and allowed to form monolayers over a period of 24 h. […] After incubating for 1 hour at 37° C., cells were rinsed with PBS (2×0.5 mL) and 1M trichloroacetic acid (1×0.5 mL) to remove any unbound radioactive materials. After adding 1% sodium dodecylsulfate in PBS (0.5 mL), cells were transferred into individual scintillation vials containing Ecolume scintillation cocktail (3.0 mL) and counted in a liquid scintillation analyzer. The relative binding affinities were calculated using a plot of cell bound radioactivity versus the concentration of the test article using Graph Pad Prism 4.
(§3) KB cells that overexpress FR-α were seeded in 24-well (100,000 cells/well) Falcon plates (BD Biosciences, CA) and allowed to form monolayers over a period of 12 h. […] After incubating for 1 h at 37° C., cells were rinsed with PBS (3×0.5 mL, Gibco, NY) to remove any unbound radioactive materials. After adding 0.25 M sodium hydroxide (0.5 mL) and incubating for 12 h at 4° C., cells were transferred into individual scintillation vials containing Ecolite scintillation cocktail (3.0 mL, MP Biomedicals, OH) and counted in a liquid scintillation analyzer (Packard). The relative binding affinities were calculated using a plot of % cell bound radioactivity versus the log concentration of the test article using GraphPad Prism 4.
as §3, with “12 hours.” for “12 h.”, “1 hour” for “1 h”, “12 hours” for “12 h”

[7] = test system: FR-positive MDA-MB 231 orthotopic tumors; test: Imaging and biodistribution, MDA-MB 231 orthotopic model; format: in vivo, mice; conditions: 2 nmol, 2 h
Procedure: Breast cancer was developed by implanting breast cancer cells in the […] fat pad of the mouse.
as §1

CC1(C)C(/C=C/C2=C(Oc3ccc(C[C@H](NC(=O)c4ccc(NCc5cnc6nc(N)[nH]c(=O)c6n5)cc4)C(=O)[O-])cc3)C(=C/C=C3\N(CCCCS(=O)(=O)[O-])c4ccc(S(=O)(=O)[O-])cc4C3(C)C)/CCC2)=[N+](CCCCS(=O)(=O)[O-])c2ccc(S(=O)(=O)[O-])cc21.[H+].[H+].[H+].[H+] [OTL-0038, Pte-Tyr-S0456]
affinity for FR-alpha versus beta [1]: binds to FR-alpha and beta with same affinity | tumor-to-normal tissue ratios [2]: excellent tumor-to-normal tissue ratios | whole body imaging: accumulation [2]: accumulated mainly in the FR-positive M109 tumors metastasize to the liver, lung and spleen | E [3]: 272000 M⁻¹ cm⁻¹ | Q (%) [3]: 15.6% | Stokes Shift (nm) [3]: 20 nm | λem (nm) [3]: 776 nm | λex (nm) [3]: 796 nm | ex-vivo tissue biodistribution [4]: highest fluorescence intensities were observed in FR-positive tumors and kidneys | tumor-to-normal tissue ratios [4]: excellent tumor-to-normal tissue ratios | whole body imaging: accumulation [4]: accumulated mainly in the FR-positive IGROV tumor xenografts | ex-vivo tissue biodistribution ([5]; 2 nmol, 2 h): highest fluorescence intensities were observed in FR-positive tumors and kidneys | tumor-to-normal tissue ratios ([5]; 2 nmol, 2 h): excellent tumor-to-normal tissue ratios | whole body imaging: accumulation ([5]; 2 nmol, 2 h, listed as OTL38): accumulated mainly in the FR-positive MDA-MB 231 tumor xenografts; also recorded: mainly accumulated in FR-positive MDA-MB 231 tumor xenografts and kidneys | accumulation in tumor and kidneys after blocking the FR ([5]; 100 fold excess of folic acid prior to 2 nmol, 2 h): inhibited by the administration of 100 fold excess of folic acid | specificity for FR (conclusion) ([5]; blocking with excess folic acid): highly specific for FR | affinity and specificity for folate receptor (words) ([6]; KB cells): compares well with the binding affinity of folic acid | competition with [3H]-folic acid ([6]; KB cells): competed well with [3H]-folic acid | affinity and specificity for folate receptor (words) ([6]; KB cells, listed as OTL38): binds to FR with high affinity and specificity | affinity and specificity for folate receptor (words) ([6]; KB cells, listed as Pte-Tyr-S0456): binds folate receptor with high affinity and specificity | Relative binding affinities ([6]; relative affinity of folic acid=1, <1 weaker): 0.71 | ex-vivo tissue biodistribution [7]: highest fluorescence intensities were observed in FR-positive tumors and kidneys | tumor-to-normal tissue ratios [7]: excellent tumor-to-normal tissue ratios | whole body imaging: accumulation [7]: accumulated mainly in the FR-positive MDA-MB 231 orthotopic tumors
